Results as given in patent US12458605B2, “Lipid nanoparticle” (National University Corporation Hokkaido University, priority 2020, dated 2025).

Tests used:
[1] = Zeta potential in 10 mM HEPES buffer (pH 7.4); format: physicochemical
Experimental: (§1) The average particle size (number-average value) and PDI in PBS(−) and zeta potential in 10 mM HEPES buffer solution (pH 7.4) of lipid nanoparticles were measured using “Zetasizer Nano ZS ZEN3600”, an analyzer utilizing dynamic light scattering (manufactured by Malvern).

[2] = pKa of lipid nanoparticles by TNS (section II); format: physicochemical; settings: F7siRNA-loaded LNP; compared with LNP of straight-chain CL4H6 or CL15H6 (FIG. 1)
Experimental: The pKa of lipid nanoparticles was measured using p-toluidino-2-naphthalenesulfonic acid (TNS). First, TNS (final concentration: 0.75 μM) and lipid nanoparticles (final concentration: […]) were mixed in buffer solution adjusted to each pH. The fluorescence intensity of the prepared mixture was measured with a microplate reader. The highest and lowest values among the measured values were taken as 100% and 0% charge rates respectively, and the pH indicating 50% charge rate was calculated as pKa.

[3] = Nucleic acid encapsulation rate by Ribogreen (section II); format: physicochemical; settings: for % mRNA encapsulation: NlucmRNA-loaded LNP, 60:10:40:1; for % pDNA encapsulation: pFluc-loaded LNP
Experimental: The encapsulation rates of siRNA, mRNA, and pDNA of lipid nanoparticles were measured using Ribogreen (manufactured by life technologies).

[4] = Average particle size and PDI by dynamic light scattering (Zetasizer Nano ZS); format: physicochemical
Experimental: as §1

[5] = system: F7; test: In vivo F7 knockdown, plasma F7 enzyme activity, ICR mice; settings: i.v. 0.003-0.1 mg siRNA/kg, plasma at 24 hours, compared with LNP of CL4H6 or CL15H6 (FIG. 2)
Experimental: Then, each prepared F7siRNA-loaded lipid nanoparticles were administered to ICR mice (4 weeks old, female) and in vivo F7 knockdown activity was examined.
Specifically, each F7siRNA-loaded lipid nanoparticles were intravenously administered to ICR mice at 0.003-0.1 mg siRNA/kg, and plasma F7 enzyme activity at 24 hours later was measured. Relative plasma F7 enzyme activity (%) of mice administered each F7siRNA-loaded lipid nanoparticles was calculated using plasma F7 enzyme activity of untreated mice as 100%. FIG. 2(B) is the results of intravenous administration of each F7siRNA-loaded lipid nanoparticle at 0.1 mg siRNA/kg.

[6] = Storage stability of FlucmRNA-loaded LNP at −80, 5, 25 and 40° C.; format: physicochemical; settings: for period for which quality remained good, −80° C.: maximum storage period 1 week; for period for which quality remained good, 5° C. / period for which quality remained good, 25° C. / period for which quality remained good, 40° C. (weeks): maximum storage period 5 weeks
Procedure, shortened: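 Reported period is how long all three criteria hold: encapsulation rate at 80% or more, PDI of 0.2 or less, and mean particle size within +/−20 nm of day-of-preparation value. Particle size, PDI and nucleic acid encapsulation were tracked over time at storage temperatures of −80, 5, 25 and 40° C.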

[7] = system: liver; test: In vivo Fluc activity of FlucmRNA-loaded LNP by in vivo imaging, liver; settings: Balb/c mice, FlucmRNA-loaded LNP i.v. 0.1 mg mRNA/kg, 6 hours
Procedure, shortened: (§2)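 Read-out is average radiance (p/s/cm2/sr, about 560 nm) from whole-animal imaging of liver and spleen 6 h post-dose, after tail-vein luciferin at 1.5 mg/mouse. Dosing was intravenous, 0.1 mg mRNA/kg, in 7-week-old female Balb/c mice.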

[8] = Average particle size (ζ-Average) and PDI by dynamic light scattering (Zetasizer Nano ZSP); format: physicochemical
Procedure, shortened: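 Dynamic light scattering of the particles in PBS(−) gave both the polydispersity index and the ζ-Average mean size.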

[9] = system: spleen; test: In vivo Fluc activity of FlucmRNA-loaded LNP by in vivo imaging, spleen; settings: Balb/c mice, FlucmRNA-loaded LNP i.v. 0.1 mg mRNA/kg, 6 hours
Procedure, shortened: as §2

[10] = system: F7; test: In vivo F7 knockdown, plasma F7 enzyme activity (BIOPHEN FVII), Balb/c mice; settings: i.v. 0.025 mg siRNA/kg, plasma at 24 hours
Procedure, shortened: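 Plasma factor VII activity was read 24 h after a single intravenous 0.025 mg siRNA/kg dose of siRNA-loaded lipid nanoparticles in 5-week-old female Balb/c mice. Activity is relative to untreated animals (100%) and normalised to the MC3 nanoparticle benchmark (=1).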

[11] = NlucmRNA-loaded LNP, 60:10:40:1
[12] = NlucmRNA-loaded LNP, lipid:DSPC:cholesterol:PEG-DMG 60:10:40:1
[13] = pFluc-loaded LNP, 50:10:40:1.5, N/P ratio 6
[14] = pFluc-loaded LNP, 50:10:40:1.5, N/P ratio 9
[15] = F7siRNA-loaded LNP, 50:10:38.5:1.5, N/P ratio 6
[16] = FlucmRNA-loaded LNP, 50:10:38.5:1.5
[17] = FlucmRNA-loaded LNP, lipid:DSPC:cholesterol:DMG-PEG2K 50:10:38.5:1.5

SMILES | ζ-potential (mV) [1, 11] [mV] | ζ-potential (mV) ([1]; pFluc-loaded LNP, N/P ratio 6) | ζ-potential (mV) ([1]; pFluc-loaded LNP, N/P ratio 9) | pKa of lipid nanoparticle, compared [2] | % mRNA encapsulation [3] [%] | % pDNA encapsulation ([3]; N/P ratio 6) [%] | % pDNA encapsulation ([3]; N/P ratio 9) [%] | PdI [4, 11] | ζ-Average (nm) [4, 12] [nm] | ζ-Average (nm) [4, 13] [nm] | ζ-Average (nm) [4, 14] [nm] | PdI ([4]; pFluc-loaded LNP, N/P ratio 6) | PdI ([4]; pFluc-loaded LNP, N/P ratio 9) | in vivo F7 knockdown activity, compared [5] | period for which quality remained good, −80° C. [6] [week] | period for which quality remained good, 5° C. [6] [weeks] | period for which quality remained good, 25° C. [6] [weeks] | period for which quality remained good, 40° C. (weeks) [6] [weeks] | Fluc Activity in liver [7] | PDI [8, 15] | other results
CCCCCCCCC(CCCCCC)C(=O)OCCCCCCC(O)(CCCCCCOC(=O)C(CCCCCC)CCCCCCCC)CCCCOC(=O)C1CCN(C)CC1 (centres unmarked) [CL15F6] | −2.16 | −2.02 | −1.2 ± 0.4 | lower pKa | 90.3 | 95.4 | 93.1 ± 3.3 | 0.162 | 92.52 | 109.4 | 105.7 ± 8.6 | 0.07 | 0.13 ± 0.02 | equivalent in vivo F7 knockdown activity | 1 | 5 | 5 | 5 | 6.28E+06 Avg Radiance [p/s/cm2/sr] | 0.044 | ζ-Average (nm) [8, 15]: 105.9 nm; PDI [8, 16]: 0.002; ζ-Average (nm) [8, 17]: 115.50 nm; Fluc Activity in spleen [9]: 5.76E+06 Avg Radiance [p/s/cm2/sr]; F7 enzyme activity (Ratio using MC3 as 1) ([10]; relative plasma F7 activity of MC3 LNP as 1): 1.52
CCCN(CCC)CCCCC(O)(CCCCCCOC(=O)C(CCC(C)CC(C)(C)C)C(C)CC(C)(C)C)CCCCCCOC(=O)C(CCC(C)CC(C)(C)C)C(C)CC(C)(C)C (centres unmarked) [CL4G6, 7-(4-(dipropylamino)butyl)-7-hydroxytridecan-1,13-diyl bis(2-(4.4-dimethylpentan-2-yl)-5,7,7-trimethyloctanoate)] | −1.76 | −2.46 | −1.3 ± 0.7 | lower pKa | 91.7 | 97.6 | 94.5 ± 3.6 | 0.13 | 109.6 | 74.48 | 90.6 ± 7 | 0.11 | 0.19 ± 0.05 | equivalent in vivo F7 knockdown activity | 1 | 5 | 5 | 5 | 4.58E+07 Avg Radiance [p/s/cm2/sr] | 0.048 | ζ-Average (nm) [8, 15]: 85.14 nm; PDI [8, 16]: 0.030; ζ-Average (nm) [8, 17]: 81.21 nm; Fluc Activity in spleen [9]: 2.08E+06 Avg Radiance [p/s/cm2/sr]; F7 enzyme activity (%) ([10]; untreated mice as 100%): 7.6%
